Laboratory results published in patent publication US20220227773A1, “FUSED RING COMPOUND, PREPARATION METHOD THEREFOR AND USE THEREOF” (SHANGHAI INSTITUTE OF MATERIA MEDICA, CHINESE ACADEMY OF …, priority 2019, published 2022).
Where a name gives a salt, the structure may show the parent alone. Read-outs that look alike come from different tables or passages of the source.

Tests used:
[1] = molecular target: T1, hSERT (5-HTT) in HEK293-hSERT cells (Homo sapiens, UniProt P31645); test: 5-HTT reuptake activity assay (fluorescence neurotransmitter transporter uptake kit); format: cell-based; details: serotonin reuptake inhibition
T1 construct: expressed in transfected cells; host or cells: HEK293
T1 sequence (P31645 whole entry): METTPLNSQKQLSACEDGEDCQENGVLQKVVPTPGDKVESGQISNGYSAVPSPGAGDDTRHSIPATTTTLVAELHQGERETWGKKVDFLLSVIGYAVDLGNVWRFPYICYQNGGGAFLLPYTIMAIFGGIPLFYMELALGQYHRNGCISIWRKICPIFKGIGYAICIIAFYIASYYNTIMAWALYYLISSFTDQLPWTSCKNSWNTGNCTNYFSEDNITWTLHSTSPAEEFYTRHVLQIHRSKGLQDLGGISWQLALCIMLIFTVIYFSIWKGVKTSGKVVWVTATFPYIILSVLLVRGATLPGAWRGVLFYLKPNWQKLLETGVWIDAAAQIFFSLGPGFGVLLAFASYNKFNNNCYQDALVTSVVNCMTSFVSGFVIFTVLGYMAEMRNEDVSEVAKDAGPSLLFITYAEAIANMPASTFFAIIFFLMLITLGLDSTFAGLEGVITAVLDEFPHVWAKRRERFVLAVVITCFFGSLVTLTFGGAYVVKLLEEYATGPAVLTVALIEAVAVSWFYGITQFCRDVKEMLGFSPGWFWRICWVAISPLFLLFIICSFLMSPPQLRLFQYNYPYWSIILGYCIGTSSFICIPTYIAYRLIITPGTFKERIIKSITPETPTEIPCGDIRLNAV

[2] = molecular target: T2, human recombinant 5-HT3 receptor (Homo sapiens, UniProt P46098); test: 5-HT3 receptor affinity assay (3H-BRL 43694 radioligand binding); details: read-out: inhibition (%) at 1 μM
T2 construct: expressed in transfected cells; host or cells: HEK293 (membrane preparation)
T2 sequence (P46098 24-478): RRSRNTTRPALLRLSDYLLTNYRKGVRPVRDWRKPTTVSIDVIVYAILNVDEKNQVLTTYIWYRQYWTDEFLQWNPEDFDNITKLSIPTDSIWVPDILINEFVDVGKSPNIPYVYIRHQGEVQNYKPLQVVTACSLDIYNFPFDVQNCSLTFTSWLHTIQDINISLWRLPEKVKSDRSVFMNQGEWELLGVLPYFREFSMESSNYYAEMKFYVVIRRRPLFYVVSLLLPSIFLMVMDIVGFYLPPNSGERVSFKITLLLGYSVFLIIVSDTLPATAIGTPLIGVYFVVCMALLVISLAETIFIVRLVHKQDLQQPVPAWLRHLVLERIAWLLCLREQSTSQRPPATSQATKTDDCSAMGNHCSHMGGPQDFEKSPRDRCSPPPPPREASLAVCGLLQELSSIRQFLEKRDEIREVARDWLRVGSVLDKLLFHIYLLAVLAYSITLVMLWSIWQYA

mice = test: Tail suspension test (TST) in mice; format: in vivo; details: Mus musculus, ip
Experimental: 3. In Vivo Drug Efficacy Test (Mouse Forced Swimming Model)
Experimental animals: C57BL/6 mice (Shanghai Xipuer-Bikai Experimental Animal Co., Ltd.), male, 6 weeks old, weighing 15-20 g. ICR mice (Shanghai Xipuer-Bikai Experimental Animal Co., Ltd.), male, 6 weeks old, weighing 20-25 g. All the ordered mice were fed in a standard environment for 2-3 weeks before test.
Tail suspension test (TST): the mice were tail fixed to the apparatus with a medical tape for 6 min, the whole process was recorded by the camera. When analyzing the data, only the immobility time of the mice in the last 4 min was counted.
The results were analyzed by one-way analysis of variance. […] FST: Forced swimming test; TST: Tail suspension test.

[3] = TST, dose significantly reducing immobility time of mice, read-out: Effective dose
[4] = read-out: Effective dose (mg/kg)

Structure (SMILES)	IC50 [1] [nM]	inhibition at 1 µM [2] [%]	minimal effective dose (mice; [3]) [mg/kg]	minimal effective dose (mice; [4]) [mg/kg]
c1cc2cc(N3CCC4CNCC4CC3)ccc2s1 (stereo not drawn) [Example 7, 6-(Benzothiophen-5-yl)decahydropyrrolo[3,4-d]azepine maleate]	< 10	101	10	–
O=C(O)/C=C\C(=O)O.c1ccc2sc(N3CC4CNCC4C3)cc2c1 (stereo not drawn) [Example 22, 2-(Benzo[b]thiophen-2-yl)octahydropyrrolo[3,4-c]pyrrole maleate]	< 50	–	–	10
CCN1CC2CN(c3ccc4ccccc4c3)CC2C1.O=C(O)C(=O)O (stereo not drawn) [Example 25, 2-ethyl-5-(naphthalen-2-yl)octahydropyrrolo[3,4-c]pyrrole oxalate]	–	–	10	–
CN1CC2CN(c3cccc(Cl)c3Cl)CC2C1.O=C(O)C(=O)O (stereo not drawn) [Example 28, 2-(2,3-dichlorophenyl)-5-methyloctahydropyrrolo[3,4-c]pyrrole oxalate]	< 200	82	–	10
O=C(O)/C=C\C(=O)O.c1cc(N2CCC3CNCC3CC2)c2sccc2c1 (stereo not drawn) [Example 36, 6-(Benzo[b]thiophen-7-yl)decahydropyrrolo[3,4-d]azepine maleate]	< 10	89	10	–
O=C(O)/C=C\C(=O)O.c1cc(N2CCC3CNCC3CC2)c2ccsc2c1 (stereo not drawn) [Example 38, 6-(Benzo[b]thiophen-4-yl)decahydropyrrolo[3,4-d]azepine maleate]	< 10	103	10	–
O=C(O)/C=C\C(=O)O.c1ccc2cc(N3CCC4CNCC4CC3)ccc2c1 (stereo not drawn) [Example 39, 6-(naphthalen-2-yl)decahydropyrrolo[3,4-d]azepine maleate]	< 10	92	10	–
O=C(O)/C=C\C(=O)O.c1cc(N2CC3CCNCCC3C2)c2ccsc2c1 (stereo not drawn) [Example 41, 2-(Benzo[b]thiophen-4-yl)decahydropyrrolo[3,4-d]azepine maleate]	< 10	86	10	–
